# Assay results reported in patent publication US9284284B2, “Oxazine derivatives and their use in the treatment of disease” (NOVARTIS AG, priority 2011, dated 2016).
# Experiments:
# human BACE-1 = human BACE-1 (Homo sapiens (Human), UniProt P56817); experiment: Test 1: Inhibition of Human BACE-1; format: biochemical; details: recombinant BACE-1, pH 4.5, fluorescence-quenched substrate
# Description: Test 1: Inhibition of Human BACE-1
# (§1) Recombinant BACE-1 (extracellular domain, expressed in baculovirus and purified using standard methods) at 0.1 to 1 nM concentrations is incubated with the test compound at various concentrations for 1 hour at room temperature in 100 mM acetate buffer, pH 4.5, containing 0.1% CHAPS. Activity was measured using a final concentration of 3 μM of the fluorescence-quenched substrate Q-C(HSO3)-Ile-Asp-Leu-Ala-Val-Leu-Asp-HN—CH2—CH2-Mca, where Q=2-nitro-5-amino benzoic acid and Mca=7-methoxy-4-coumarinyl acetic acid. […] Fluorescence increase was followed for 15 min, in 1 minute's intervals. The fluorescence/time slopes were calculated from duplicate wells and from wells without inhibitor and the IC50 values were calculated using a logistic 4-parameter model.
# human BACE-2 = human BACE-2 (Homo sapiens (Human), UniProt Q9Y5Z0); experiment: Test 2: Inhibition of Human BACE-2; format: biochemical; details: recombinant BACE-2, pH 4.5, fluorescence-quenched substrate
# Description: Test 2: Inhibition of Human BACE-2
# as §1, with “BACE-2” for “BACE-1”
# [1] = test system: amyloid peptide 1-40 release; experiment: Test 4: Inhibition of Cellular Release of Amyloid Peptide 1-40; format: cell-based; details: Cricetulus griseus; Chinese hamster ovary cells transfected with the human gene for amyloid precursor protein, 24 hours; read-out: Amyloid-β1-40 release IC50
# Description: Chinese hamster ovary cells are transfected with the human gene for amyloid precursor protein. The cells are plated at a density of 8000 cells/well into 96-well microtiter plates and cultivated for 24 hours in DMEM cell culture medium containing 10% FCS. The test compound is added to the cells at various concentrations, and the cells are cultivated for 24 hours in the presence of the test compound. […] The potency of the compound is calculated from the percentage of inhibition of amyloid peptide release as a function of the test compound concentration.
# Sequence of human BACE-2 (Q9Y5Z0 63-473): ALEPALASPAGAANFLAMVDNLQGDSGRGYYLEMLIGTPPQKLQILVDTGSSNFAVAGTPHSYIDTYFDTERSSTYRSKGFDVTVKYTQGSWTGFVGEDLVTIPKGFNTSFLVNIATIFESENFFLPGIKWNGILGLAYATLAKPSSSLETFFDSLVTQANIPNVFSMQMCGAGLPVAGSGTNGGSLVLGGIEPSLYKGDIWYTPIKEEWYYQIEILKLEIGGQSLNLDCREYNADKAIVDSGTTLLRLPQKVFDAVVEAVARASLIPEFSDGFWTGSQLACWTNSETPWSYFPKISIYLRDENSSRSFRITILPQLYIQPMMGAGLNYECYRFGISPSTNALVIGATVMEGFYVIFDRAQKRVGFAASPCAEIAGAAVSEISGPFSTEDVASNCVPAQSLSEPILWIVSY
# Sequence of human BACE-1 (P56817 46-457): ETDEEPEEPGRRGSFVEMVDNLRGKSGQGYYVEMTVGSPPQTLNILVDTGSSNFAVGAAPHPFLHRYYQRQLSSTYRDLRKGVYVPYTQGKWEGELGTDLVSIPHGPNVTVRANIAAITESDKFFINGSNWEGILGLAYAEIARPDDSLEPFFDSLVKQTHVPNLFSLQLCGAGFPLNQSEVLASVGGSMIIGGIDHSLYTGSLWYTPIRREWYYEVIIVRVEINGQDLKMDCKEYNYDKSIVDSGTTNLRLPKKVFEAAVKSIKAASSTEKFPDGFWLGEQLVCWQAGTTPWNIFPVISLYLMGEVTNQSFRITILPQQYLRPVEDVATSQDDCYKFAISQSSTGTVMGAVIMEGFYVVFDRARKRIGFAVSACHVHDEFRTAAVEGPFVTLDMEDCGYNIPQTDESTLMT
SMILES,IC50 (human BACE-1) [nM],IC50 (human BACE-2) [nM],IC50 [1] [nM]
"N#Cc1cnc2c(Nc3ccc(F)c([C@]4(C(F)F)COCC(N)=N4)c3)nccc2c1 [Example 9, 8-[3-((R)-5-Amino-3-difluoromethyl-3,6-dihydro-2H-[1,4]oxazin-3-yl)-4-fluoro-phenylamino]-[1,7]naphthyridine-3-carbonitrile]",18,30,5
"COc1cncnc1Nc1ccc(F)c([C@]2(C(F)F)COCC(N)=N2)c1 [Example 21, (R)-5-Difluoromethyl-5-[2-fluoro-5-(5-methoxy-pyrimidin-4-ylamino)-phenyl]-5,6-dihydro-2H-[1,4]oxazin-3-ylamine]",1500,560,430
"COc1cccnc1Nc1ccc(F)c([C@]2(C)CO[C@@](C)(C(F)(F)F)C(N)=N2)c1 [Example 25, (2R,5R)-5-[2-Fluoro-5-(3-methoxy-pyridin-2-ylamino)-phenyl]-2,5-dimethyl-2-trifluoromethyl-5,6-dihydro-2H-[1,4]oxazin-3-ylamine]",210,27,220
"CCOc1cccnc1Nc1ccc(F)c([C@]2(C(F)F)COCC(N)=N2)c1 [Example 19, (R)-5-Difluoromethyl-5-[5-(3-ethoxy-pyridin-2-ylamino)-2-fluoro-phenyl]-5,6-dihydro-2H-[1,4]oxazin-3-ylamine]",1300,160,310
"NC1=N[C@@](c2cc(Nc3nccc4cc(Br)cnc34)ccc2F)(C(F)F)COC1 [Example 8, [3-((R)-5-Amino-3-difluoromethyl-3,6-dihydro-2H-[1,4]oxazin-3-yl)-4-fluoro-phenyl]-(3-bromo-[1,7]naphthyridin-8-yl)-amine]",21,11,33
"COc1cnc(N)nc1Nc1ccc(F)c([C@]2(C(F)F)COCC(N)=N2)c1 [N*4*-[3-((R)-5-amino-3-difluoromethyl-3,6-dihydro-2H-[1,4]oxazin-3-yl)-4-fluoro-phenyl]-5-methoxy-pyrimidine-2,4-diamine]",> 10000,> 10000,> 10000
"C[C@@]1(c2cccc(Nc3n[nH]c4ccccc34)c2)COCC(N)=N1 [[3-((R)-5-amino-3-methyl-3,6-dihydro-2H-[1,4]oxazin-3-yl)-phenyl]-(1H-indazol-3-yl)-amine]",> 10000,> 10000,> 10000
"NC1=N[C@@](c2cc(Nc3ncccn3)ccc2F)(C(F)F)COC1 [Example 16, (R)-5-Difluoromethyl-5-[2-fluoro-5-(pyrimidin-2-ylamino)-phenyl]-5,6-dihydro-2H-[1,4]oxazin-3-ylamine]",8600,> 10000,2300
"CC1(c2cccc(Nc3noc4ccccc34)c2)COCC(N)=N1 (stereo not drawn) [Example 3, [3-(5-Amino-3-methyl-3,6-dihydro-2H-[1,4]oxazin-3-yl)-phenyl]-benzo[d]isoxazol-3-yl-amine]",8900,3200,7100
